How the values were obtained:
MDA-GSC 17 = experiment: Cell viability dose response (IC50), MDA-GSC 17; type: cell-based; settings: Homo sapiens, mean of three independent experiments
Protocol: (§1) MDA-GSCs were plated at 50,000 cells/well into 12-well plates at and allowed to grow for 5 days until neurospheres were formed. The cells were then treated with either TCP, GSK-LSD1, or RN-1 at various concentrations for 5 days. Next, the cells were collected and neurospheres were dissociated with Accutase (BioLegend; San Diego, CA). Cell viability was determined using a trypan dye exclusion assay and read with the Vi-Cell XR Cell Viability Analyzer (Beckman Coulter; Brea, CA). NHAs were plated at 50,000 cells/well into 12-well plates and allowed to adhere overnight. The following day, NHAs were treated with the LSD1 inhibitors. After 5 days, the cells were detached using TrypLE and assessed with the trypan blue dye exclusion assay.
(§2) The alamarBlue cell viability (Bio-Rad; Hercules, CA) was performed on the MDA-GSCs according to the manufacturer’s protocol. The cells were plated at 5,000 cell/well into a 96-well plate and allowed to grow for 5 days. After 5 days, the alamarBlue reagent was added and fluorescence was measured with the Synergy 2 (BioTek Instruments; Winooski, VT) plate reader according to the manufacturer’s protocol.

MDA-GSC 7–2 = experiment: Cell viability dose response (IC50), MDA-GSC 7–2; type: cell-based; settings: Homo sapiens, mean of three independent experiments
Protocol: as §1, §2

MDA-GSC 8–11 = experiment: Cell viability dose response (IC50), MDA-GSC 8–11; type: cell-based; settings: Homo sapiens, mean of three independent experiments
Protocol: as §1, §2

MDA-GSC 23 = experiment: Cell viability dose response (IC50), MDA-GSC 23; type: cell-based; settings: Homo sapiens, mean of three independent experiments
Protocol: as §1, §2

MDA-GSC 6–27 = experiment: Cell viability dose response (IC50), MDA-GSC 6–27; type: cell-based; settings: Homo sapiens, mean of three independent experiments
Protocol: as §1, §2

MDA-GSC 311 = experiment: Cell viability dose response (IC50), MDA-GSC 311; type: cell-based; settings: Homo sapiens, mean of three independent experiments
Protocol: as §1, §2

MDA-GSC 20 = experiment: Cell viability dose response (IC50), MDA-GSC 20; type: cell-based; settings: Homo sapiens, mean of three independent experiments
Protocol: as §1, §2

MDA-GSC lines = experiment: Cell viability across the panel of nine MDA-GSC lines; type: cell-based, Human; settings: for concentrations at which MDA-GSC viability was reduced: many/several MDA-GSC lines, dose response curves Figure 2
Protocol: as §1, §2

MDA-GSC 262 = experiment: Cell viability dose response (IC50), MDA-GSC 262; type: cell-based; settings: Homo sapiens, mean of three independent experiments
Protocol: as §1, §2

NHA = experiment: Cell viability dose response (IC50), normal human astrocytes; type: cell-based; settings: for IC50: Homo sapiens, Astrocyte, mean of three independent experiments; for effect on NHA viability: NHA treated at the maximum concentration tested for each compound
Protocol: as §1, §2

[1] = set-up: method as in PMID 34786883, PMID 33052756; settings: safety studies; cited from earlier work
MDA-GSC 7–11 = experiment: Cell viability dose response (IC50), MDA-GSC 7–11; type: cell-based; settings: Homo sapiens, mean of three independent experiments
Protocol: as §1, §2

[2] = set-up: method as in personal communications, Salarius Pharmaceuticals; settings: ref personal communications, Salarius Pharmaceuticals; cited from earlier work
MDA-GSC8-11 = experiment: qPCR of resistance-related genes, MDA-GSC8-11; type: cell-based, Human; settings: MDA-GSC8-11 (resistant)
Protocol: (§3) Total RNA was extracted using RNeasy Plus Mini Kit (Qiagen; Hilden, Germany) following the manufacturer’s protocol. cDNA was synthesized with the iScript cDNA synthesis kit (Bio-Rad; Hercules, CA), qPCR was performed using Forget-Me-Not EvaGreen qPCR kit (Biotium; Fremont, CA), and samples were analyzed with the LightCycler96 (Roche; Basel, Switzerland). Cq values were normalized to PPIA and reported as relative fold change from untreated control.

MDA-GSC17 = experiment: qPCR of resistance-related genes, MDA-GSC17; type: cell-based, Human; settings: MDA-GSC17 (sensitive)
Protocol: as §3

MDA-GSC20 = experiment: qPCR of resistance-related genes, MDA-GSC20; type: cell-based, Human; settings: MDA-GSC20 (resistant)
Protocol: as §3

MDA-GSC7-2 = experiment: qPCR of resistance-related genes, MDA-GSC7-2; type: cell-based, Human; settings: MDA-GSC7-2 (sensitive)
Protocol: as §3

SMILES | IC50 (MDA-GSC 17) | IC50 (MDA-GSC 7–2) | IC50 (MDA-GSC 8–11) | IC50 (MDA-GSC 23) | IC50 (MDA-GSC 6–27) | IC50 (MDA-GSC 311) | IC50 (MDA-GSC 20) | concentrations at which MDA-GSC viability was reduced (MDA-GSC lines) | IC50 (MDA-GSC 262) | IC50 (NHA; NHA) | neurotoxic effects in human trials [1] | IC50 (MDA-GSC 7–11) | effect on NHA viability (NHA) | also measured
CN1CCN(C(=O)[C@H](CCCN[C@@H]2C[C@H]2c2ccc(F)cc2)NC(=O)c2ccc(-n3ccnn3)cc2)CC1 [IMG-7289] | 87.4 µM | 32.1 µM | 56.1 µM | 34.2 µM | 39.9 µM | > 125 µM | 66.9 µM | < 50 µM | 41.2 µM | 38.2 µM | have not revealed any neurotoxic effects | 23.6 µM |  | 
Nc1nnc(CN[C@@H]2C[C@H]2c2ccc(OCc3ccccc3)cc2)o1 [ORY-2001] | > 50 µM | > 50 µM | > 50 µM | 48.1 µM | > 50 µM | 45.6 µM | > 50 µM |  | > 50 µM | > 50 µM |  | 42.1 µM |  | IC50 (MDA-GSC lines; Homo sapiens, majority of MDA-GSCs, maximum dose 50 μM): > 50 µM
N[C@H]1CC[C@H](N[C@@H]2C[C@H]2c2ccccc2)CC1 [ORY-1001] | 107 µM | 87.7 µM | 64.5 µM | 97.8 µM | 72.8 µM | > 150 µM | 54.8 µM | 50 to 90 µM | 92.7 µM | 96.3 µM | have not revealed any neurotoxic effects | 64.7 µM |  | 
CN1CCN(C(=O)CN[C@H]2C[C@@H]2c2ccc(OCc3ccccc3)cc2)CC1 [RN-1] | 22.5 µM | > 50 µM | > 50 µM | > 50 µM | 23.8 µM | > 50 µM | 39.8 µM | 20 to 50 µM | > 50 µM | > 50 µM |  | > 50 µM | minimal effect | 
C/C(=N\NC(=O)c1cccc(S(=O)(=O)N2CCN(C)CC2)c1)c1cc(Cl)ccc1O [SP-2577] | 15.7 µM | 9.7 µM | 12.4 µM | 16.8 µM | 6.8 µM | 23.6 µM | > 25 µM | less than 10 μM | 8.8 µM | 2.3 µM |  | 5.6 µM |  | crossing of the blood brain barrier [2]: has not been found to cross the blood brain barrier; activity in noncancerous cells, NHA (NHA; NHA, Figure 2J): strong activity
NC1CC1c1ccccc1 (stereo not shown) [TCP, tranylcypromine] | 2200 µM | 2700 µM | > 5000 µM | 2700 µM | > 5000 µM | 3500 µM | 4700 µM |  | 4100 µM | > 5000 µM |  | > 5000 µM | minimal effect | expression of resistance-related genes (MDA-GSC8-11): increase in two of the resistance related genes; expression of resistance-related genes (MDA-GSC17): did not significantly increase; effects on cell viability (MDA-GSC lines; MDA-GSC lines, Figure 2C): not seen until mM concentrations; expression of resistance-related genes (FTH1, RAB39B, HKDC1, FAM213A) (MDA-GSC20): consistently increased; expression of resistance-related genes (FTH1, RAB39B, HKDC1, FAM213A) (MDA-GSC7-2): only minimal effects

From article PMC10111022, “Comparison of pharmacological inhibitors of lysine-specific demethylase 1 in glioblastoma stem cells reveals inhibitor-specific efficacy profiles” (Frontiers in Neurology, 2023)
